Reference: patent publication US4668679A, “Aminoethyl-pyridine and pyrazine derivatives” (Riom Laboratories C.E.R.M., priority 1983, dated 1987)

Test system: Bronchospasm
Assay: antibronchoconstrictory activity, technique of Konzett and Rossler (histamine bronchospasm, i.v.)
Assay type: in vivo, tricoloured guinea pigs
Conditions: guinea pig; for Duration: duration of action
Procedure: The antibronchoconstrictory activity was investigated on tricoloured guinea pigs according to the technique of Konzett and Rossler. The animals are anaesthetised with ethylcarbamate and, after tracheotomy, are artifically respirated at constant volume; whereby the intratracheal pressure is recorded continuously. Histamine (5 μg.kg^-1, i.v.) is administered before and at various time-intervals after treatment with the substance to be studied. The activity of the product administered intravenously is evaluated by comparing the amplitudes of the bronchospasms before and after treatment and calculating the percentage variation and the duration of action.

[1] = Cavia porcellus, iv, dose 5 mg, histamine 5 μg/kg i.v.
[2] = dose 5 mg, histamine 5 μg/kg i.v.
[3] = Cavia porcellus, iv, dose 0.05 mg, histamine 5 μg/kg i.v.
[4] = dose 0.05 mg, histamine 5 μg/kg i.v.
[5] = Cavia porcellus, iv, dose 0.25 mg, histamine 5 μg/kg i.v.
[6] = dose 0.25 mg, histamine 5 μg/kg i.v.
[7] = Cavia porcellus, iv, dose 0.1 mg, histamine 5 μg/kg i.v.
[8] = dose 0.1 mg, histamine 5 μg/kg i.v.

## COC(CN1CCCC1)c1ccc(C)nc1 (stereo not drawn) [Compound 1]
[1]
  inhibition in vivo at 5 mg: 56.5%
[2]
  Duration: > 60 min

## COC(CN1CCN(c2ccc(F)cc2)CC1)c1ccc(C)nc1 (stereo not drawn) [Compound 2]
[3]
  inhibition in vivo at 0.05 mg: 85%
[4]
  Duration: > 120 min
Histamine bronchospasm
  antibronchoconstrictory activity (intensity and duration of action), in words: excellent activity

## COC(CN1CCOCC1)c1ccc(C)nc1 (stereo not drawn) [Compound 3]
[1]
  inhibition in vivo at 5 mg: 50%
[2]
  Duration: > 15 min

## COC(CN1CCN(c2ccccc2)CC1)c1ccc(C)nc1 (stereo not drawn) [Compound 6, 1-[2-Methoxy-2-(6-methyl-3-pyridyl)-ethyl]-4-phenyl-piperazine]
Cavia porcellus, iv, dose 0.025 mg, histamine 5 μg/kg i.v.
  inhibition in vivo at 0.025 mg: 90%
Cavia porcellus, iv, histamine bronchospasm
  ED50: 1.9 µg/kg
Dose 0.025 mg, histamine 5 μg/kg i.v.
  Duration: > 120 min
Histamine bronchospasm
  antibronchoconstrictory activity (intensity and duration of action), in words: excellent activity

## COc1ccccc1N1CCN(CC(OC)c2ccc(C)nc2)CC1 (stereo not drawn) [Compound 7, 1-[2-Methoxy-2-(6-methyl-3-pyridyl)-ethyl]-4-(2-methoxy-phenyl)-piperazine]
[5]
  inhibition in vivo at 0.25 mg: 97%
[6]
  Duration: > 60 min
Histamine bronchospasm
  antibronchoconstrictory activity (intensity and duration of action), in words: excellent activity

## CCOc1ccccc1N1CCN(CC(OC)c2ccc(C)nc2)CC1 (stereo not drawn) [Compound 8]
[7]
  inhibition in vivo at 0.1 mg: 95%
[8]
  Duration: > 15 min
Histamine bronchospasm
  antibronchoconstrictory activity (intensity and duration of action), in words: excellent activity

## COC(CN1CCN(c2ccccc2)CC1)c1cnc(C)cn1 (stereo not drawn) [Compound 9]
[5]
  inhibition in vivo at 0.25 mg: 98%
[6]
  Duration: 30 min

## CCOC(CN1CCN(c2ccccc2)CC1)c1ccc(C)nc1 (stereo not drawn) [Compound 10]
Cavia porcellus, iv, dose 1 mg, histamine 5 μg/kg i.v.
  inhibition in vivo at 1 mg: 100%
Dose 1 mg, histamine 5 μg/kg i.v.
  Duration: > 60 min

## CCOC(CN1CCN(c2ccccc2OC)CC1)c1ccc(C)nc1 (stereo not drawn) [Compound 11]
[5]
  inhibition in vivo at 0.25 mg: 100%
[6]
  Duration: > 60 min

## COC(CN1CCN(c2ccc(F)cc2)CC1)c1cnc(C)cn1 (stereo not drawn) [Compound 12]
Cavia porcellus, iv, dose 0.5 mg, histamine 5 μg/kg i.v.
  inhibition in vivo at 0.5 mg: 91%
Dose 0.5 mg, histamine 5 μg/kg i.v.
  Duration: > 60 min

## COC(CN1CCN(c2ccccc2)CC1)c1nccnc1C.O=C(O)/C=C/C(=O)O (stereo not drawn) [Compound 14, 1-[2-Methoxy-2-(3-methyl-2-pyrazinyl)-ethyl]-4-phenyl-piperazine fumarate salt]
[1]
  inhibition in vivo at 5 mg: 82%
[2]
  Duration: 45 min

## COc1ccc(N2CCN(CC(OC)c3ccc(C)nc3)CC2)c(OC)c1 (stereo not drawn) [Compound 15]
[3]
  inhibition in vivo at 0.05 mg: 80%
[4]
  Duration: 60 min
Histamine bronchospasm
  antibronchoconstrictory activity (intensity and duration of action), in words: excellent activity

## COC(CN1CCN(c2ccccc2C)CC1)c1ccc(C)nc1 (stereo not drawn) [Compound 16]
[7]
  inhibition in vivo at 0.1 mg: 79%
[8]
  Duration: 45 min
Histamine bronchospasm
  antibronchoconstrictory activity (intensity and duration of action), in words: excellent activity
